# Columns and labels:
# Human δ-opioid (DOP) = target: T1, Human δ-opioid (DOP) (Homo sapiens, UniProt P41143); experiment: Radioligand binding, human δ-opioid (DOP) membranes, FlashPlate, [3H]-Bremazocine; settings: compound at 10 μM; for A1 radioligand binding inhibition: human δ-opioid (DOP) membranes
# T1 construct: purchased Perkin Elmer Biosignal
# How it was run: (§1)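 Cloned human receptor membranes were coated onto FlashPlate wells and incubated with radioligand and compound (added from a 0.5 mM DMSO daughter plate) for 1 hour at room temperature in the dark. Scintillation counting gave percent inhibition, with DMSO defining total and reference ligand defining non-specific binding.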
# Human neurokinin (NK1) = target: T2, Human neurokinin (NK1) (Homo sapiens, UniProt P25103); experiment: Radioligand binding, human neurokinin NK1 membranes, filtration, [125I]-Substance P; settings: compound at 10 μM; for A8 radioligand binding inhibition: human neurokinin NK1 membranes
# T2 construct: purchased Perkin Elmer Biosignal
# How it was run: (§2)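 Membranes from cloned human receptors were incubated with compound and radioligand for 1 hour at room temperature. Bound ligand was collected on 0.3% PEI-soaked filters, washed with cold 50 mM Tris-HCl pH 7.4, and counted by scintillation. Percent inhibition was computed against DMSO totals and reference-ligand nonspecific wells.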
# [1] = target: T3, Human melanin-concentrating hormone (MCH1) (Homo sapiens, UniProt Q99705); experiment: Radioligand binding, human melanin-concentrating hormone MCH1 membranes, FlashPlate, [125I]-S36057; settings: compound at 10 μM; for A6 radioligand binding inhibition: human MCH1 membranes
# T3 construct: purchased Perkin Elmer Biosignal
# How it was run: as §1
# [2] = target: T4, Human neuropeptide Y (NPY-Y1) (Homo sapiens, UniProt P25929); experiment: Radioligand binding, human neuropeptide Y NPY-Y1 membranes, FlashPlate, [125I]-PYY; settings: compound at 10 μM
# T4 construct: purchased Perkin Elmer Biosignal
# T4 sequence (P25929 1-384): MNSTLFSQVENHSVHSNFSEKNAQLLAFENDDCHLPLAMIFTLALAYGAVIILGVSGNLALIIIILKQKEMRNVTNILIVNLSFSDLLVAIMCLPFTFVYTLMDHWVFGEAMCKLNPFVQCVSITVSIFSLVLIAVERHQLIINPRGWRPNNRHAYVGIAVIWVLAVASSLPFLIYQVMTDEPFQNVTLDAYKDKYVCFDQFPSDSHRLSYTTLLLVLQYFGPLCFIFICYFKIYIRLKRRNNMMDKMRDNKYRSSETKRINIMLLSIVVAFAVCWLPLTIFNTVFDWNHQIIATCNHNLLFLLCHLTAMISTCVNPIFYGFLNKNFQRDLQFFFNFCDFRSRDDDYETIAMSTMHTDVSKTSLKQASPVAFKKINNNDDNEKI
# How it was run: as §1
# Mouse urotensin (mUR2) = target: T5, Mouse urotensin (mUR2) (Mus musculus, UniProt Q8VIH9); experiment: Radioligand binding, mouse urotensin mUR2 membranes, FlashPlate, [125I]-Urotensin II; settings: compound at 10 μM; for A11 radioligand binding inhibition: mouse urotensin mUR2 membranes
# T5 construct: purchased Perkin Elmer Biosignal
# T5 sequence (Q8VIH9 1-385): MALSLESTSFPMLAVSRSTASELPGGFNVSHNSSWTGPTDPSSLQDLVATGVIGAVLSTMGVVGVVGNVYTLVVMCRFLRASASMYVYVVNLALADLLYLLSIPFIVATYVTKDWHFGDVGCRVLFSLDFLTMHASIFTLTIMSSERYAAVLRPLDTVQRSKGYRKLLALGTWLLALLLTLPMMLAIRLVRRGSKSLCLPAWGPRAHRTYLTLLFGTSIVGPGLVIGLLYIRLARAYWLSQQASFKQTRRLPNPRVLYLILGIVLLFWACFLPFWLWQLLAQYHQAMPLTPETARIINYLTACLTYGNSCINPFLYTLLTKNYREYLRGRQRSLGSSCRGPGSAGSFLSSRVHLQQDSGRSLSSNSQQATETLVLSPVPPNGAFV
# How it was run: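 Cloned mouse urotensin (mUR2) receptor membranes from Perkin Elmer Biosignal were immobilized in FlashPlate microplates using a proprietary coating. Each well got 19.5 μl buffer, then 0.5 μl of DMSO, reference ligand, or compound. Adding 5 μl of [125I]-Urotensin II, diluted to 5× final concentration in binding buffer, started binding. Plates were sealed with TopSeal-A and incubated 1 hour at room temperature in the dark. Wells were counted for 30 seconds each on a TopCount after a 60-second delay, and percentage inhibition was calculated.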
# Human κ-Opioid (KOP) = target: T6, Human κ-Opioid (KOP) (Homo sapiens, UniProt P41145); experiment: Radioligand binding, human κ-opioid (KOP) membranes, filtration, [3H]-Diprenorphine; settings: compound at 10 μM; for A2 radioligand binding inhibition: human κ-opioid (KOP) membranes
# T6 construct: purchased Perkin Elmer Biosignal
# How it was run: as §2
# Human Melanocortin (MC4) = target: T7, Human Melanocortin (MC4) (Homo sapiens, UniProt P32245); experiment: Radioligand binding, human melanocortin MC4 membranes, FlashPlate, [125I]-NDP-αMSH; settings: compound at 10 μM; for A4 radioligand binding inhibition: human melanocortin MC4 membranes
# T7 construct: purchased Perkin Elmer Biosignal
# How it was run: as §1
# Human Melanocortin (MC3) = target: T8, Human Melanocortin (MC3) (Homo sapiens, UniProt P41968); experiment: Radioligand binding, human melanocortin MC3 membranes, FlashPlate, [125I]-NDP-αMSH; settings: compound at 10 μM; for A3 radioligand binding inhibition: human melanocortin MC3 membranes
# T8 construct: purchased Perkin Elmer Biosignal
# How it was run: as §1
# Human opioid (ORL1) = target: T9, Human opioid (ORL1) (Homo sapiens, UniProt P41146); experiment: Radioligand binding, human opioid ORL1 membranes, FlashPlate, [125I]-Nociceptin; settings: compound at 10 μM
# T9 construct: purchased Perkin Elmer Biosignal
# How it was run: as §1
# Human melanocortin (MC5) = target: T10, Human melanocortin (MC5) (Homo sapiens, UniProt P33032); experiment: Radioligand binding, human melanocortin MC5 membranes, FlashPlate, [125I]-NDP-αMSH; settings: compound at 10 μM; for A5 radioligand binding inhibition: human melanocortin MC5 membranes
# T10 construct: purchased Perkin Elmer Biosignal
# How it was run: as §1
# Human μ-opioid (MOP) = target: T11, Human μ-opioid (MOP) (Homo sapiens, UniProt P35372); experiment: Radioligand binding, human μ-opioid (MOP) membranes, FlashPlate, [3H]-Naloxone; settings: compound at 10 μM; for A7 radioligand binding inhibition: human μ-opioid (MOP) membranes
# T11 construct: purchased Perkin Elmer Biosignal
# How it was run: as §1
# T9 sequence (P41146 whole entry): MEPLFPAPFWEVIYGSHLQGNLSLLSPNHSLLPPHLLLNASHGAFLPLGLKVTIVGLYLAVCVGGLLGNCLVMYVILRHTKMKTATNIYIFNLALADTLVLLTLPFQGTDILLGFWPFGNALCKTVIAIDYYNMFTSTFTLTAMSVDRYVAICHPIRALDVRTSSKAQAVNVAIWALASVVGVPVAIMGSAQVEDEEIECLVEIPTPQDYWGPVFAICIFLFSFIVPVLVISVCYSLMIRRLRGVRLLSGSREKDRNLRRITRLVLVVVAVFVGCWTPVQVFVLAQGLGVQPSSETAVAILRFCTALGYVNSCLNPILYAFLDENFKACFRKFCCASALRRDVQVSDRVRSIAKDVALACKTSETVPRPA
# T7 sequence (P32245 whole entry): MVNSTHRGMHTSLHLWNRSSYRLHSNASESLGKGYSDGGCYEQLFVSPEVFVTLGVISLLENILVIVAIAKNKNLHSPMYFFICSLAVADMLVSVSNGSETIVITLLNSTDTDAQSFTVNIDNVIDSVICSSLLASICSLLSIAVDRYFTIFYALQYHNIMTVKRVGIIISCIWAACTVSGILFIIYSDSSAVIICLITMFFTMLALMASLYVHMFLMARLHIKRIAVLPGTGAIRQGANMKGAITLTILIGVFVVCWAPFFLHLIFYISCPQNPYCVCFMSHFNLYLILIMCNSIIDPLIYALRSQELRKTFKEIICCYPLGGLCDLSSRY
# T1 sequence (P41143 whole entry): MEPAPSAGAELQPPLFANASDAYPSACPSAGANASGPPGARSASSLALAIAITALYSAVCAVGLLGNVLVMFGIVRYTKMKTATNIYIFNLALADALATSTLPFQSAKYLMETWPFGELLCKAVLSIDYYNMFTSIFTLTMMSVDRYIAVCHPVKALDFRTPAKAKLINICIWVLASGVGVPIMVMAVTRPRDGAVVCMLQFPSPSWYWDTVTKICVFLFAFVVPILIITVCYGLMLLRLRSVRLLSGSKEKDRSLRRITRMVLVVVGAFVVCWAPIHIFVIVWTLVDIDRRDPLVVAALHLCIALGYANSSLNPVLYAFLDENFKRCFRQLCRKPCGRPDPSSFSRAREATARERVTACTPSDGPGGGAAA
# T3 sequence (Q99705 whole entry): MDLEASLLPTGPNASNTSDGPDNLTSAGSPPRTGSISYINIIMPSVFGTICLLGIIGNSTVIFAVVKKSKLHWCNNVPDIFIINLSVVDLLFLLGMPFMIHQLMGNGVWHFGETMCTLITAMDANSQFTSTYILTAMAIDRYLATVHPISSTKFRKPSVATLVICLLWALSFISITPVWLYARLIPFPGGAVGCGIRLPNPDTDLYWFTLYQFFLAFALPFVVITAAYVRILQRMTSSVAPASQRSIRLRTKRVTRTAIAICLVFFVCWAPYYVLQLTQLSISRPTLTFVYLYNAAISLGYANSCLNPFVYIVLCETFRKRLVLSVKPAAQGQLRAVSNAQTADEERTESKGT
# T10 sequence (P33032 whole entry): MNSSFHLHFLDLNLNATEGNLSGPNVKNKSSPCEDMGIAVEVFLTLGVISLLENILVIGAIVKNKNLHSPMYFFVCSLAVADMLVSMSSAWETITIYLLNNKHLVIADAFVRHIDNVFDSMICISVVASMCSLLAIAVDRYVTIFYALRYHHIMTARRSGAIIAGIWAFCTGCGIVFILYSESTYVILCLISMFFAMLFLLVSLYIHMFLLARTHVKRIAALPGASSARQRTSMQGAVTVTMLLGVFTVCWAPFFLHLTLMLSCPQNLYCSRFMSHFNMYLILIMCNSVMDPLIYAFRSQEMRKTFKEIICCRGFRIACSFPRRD
# T8 sequence (P41968 whole entry): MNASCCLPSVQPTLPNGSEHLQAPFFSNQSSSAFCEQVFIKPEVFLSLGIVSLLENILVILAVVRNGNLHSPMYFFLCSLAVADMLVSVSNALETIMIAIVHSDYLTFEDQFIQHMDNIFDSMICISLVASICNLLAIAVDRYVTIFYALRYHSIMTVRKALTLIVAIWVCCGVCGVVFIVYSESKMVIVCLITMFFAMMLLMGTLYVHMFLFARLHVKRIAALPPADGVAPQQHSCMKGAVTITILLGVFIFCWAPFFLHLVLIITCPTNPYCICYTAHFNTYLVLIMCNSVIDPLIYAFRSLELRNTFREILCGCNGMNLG
# T2 sequence (P25103 whole entry): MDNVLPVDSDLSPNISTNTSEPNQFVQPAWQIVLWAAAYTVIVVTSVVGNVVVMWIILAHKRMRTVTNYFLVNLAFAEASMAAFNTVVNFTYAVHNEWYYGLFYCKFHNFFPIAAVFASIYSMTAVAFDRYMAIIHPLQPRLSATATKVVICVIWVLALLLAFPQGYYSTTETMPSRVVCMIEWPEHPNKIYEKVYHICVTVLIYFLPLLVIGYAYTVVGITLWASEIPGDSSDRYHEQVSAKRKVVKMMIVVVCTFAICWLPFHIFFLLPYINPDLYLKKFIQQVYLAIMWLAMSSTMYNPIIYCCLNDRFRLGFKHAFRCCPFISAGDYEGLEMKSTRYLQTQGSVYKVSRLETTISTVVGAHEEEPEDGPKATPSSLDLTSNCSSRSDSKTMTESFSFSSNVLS
# T11 sequence (P35372 whole entry): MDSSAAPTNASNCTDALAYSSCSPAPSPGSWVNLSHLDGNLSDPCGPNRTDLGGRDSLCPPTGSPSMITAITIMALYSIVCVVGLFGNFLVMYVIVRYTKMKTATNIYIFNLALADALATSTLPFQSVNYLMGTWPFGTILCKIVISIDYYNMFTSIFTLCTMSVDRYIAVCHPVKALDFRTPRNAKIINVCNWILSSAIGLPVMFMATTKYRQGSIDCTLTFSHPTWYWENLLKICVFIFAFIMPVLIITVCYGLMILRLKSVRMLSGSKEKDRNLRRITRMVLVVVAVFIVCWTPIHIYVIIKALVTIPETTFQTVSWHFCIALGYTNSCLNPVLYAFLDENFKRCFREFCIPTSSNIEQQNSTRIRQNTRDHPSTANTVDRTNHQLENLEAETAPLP
# T6 sequence (P41145 whole entry): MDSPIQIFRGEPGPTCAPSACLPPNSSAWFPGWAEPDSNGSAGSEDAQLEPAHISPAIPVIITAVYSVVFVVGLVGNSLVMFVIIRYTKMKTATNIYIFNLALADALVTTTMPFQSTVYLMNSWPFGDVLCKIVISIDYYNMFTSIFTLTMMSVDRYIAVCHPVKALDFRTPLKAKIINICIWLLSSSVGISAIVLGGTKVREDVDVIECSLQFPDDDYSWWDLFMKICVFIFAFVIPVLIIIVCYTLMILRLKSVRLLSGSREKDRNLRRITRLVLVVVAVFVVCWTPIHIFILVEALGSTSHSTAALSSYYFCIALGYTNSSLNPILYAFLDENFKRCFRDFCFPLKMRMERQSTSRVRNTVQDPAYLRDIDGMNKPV
smiles,measurement,setting,value
NCCCC(=O)NC1C(OCc2ccc3ccccc3c2)OC(COCc2ccc3ccccc3c2)C(O)C1OCc1ccccc1 (stereo not shown) [compound 396],A1: inhibition of radioligand binding,"Human δ-opioid (DOP); [3H]-Bremazocine, human DOP membranes",− (“−” indicates less than 50% inhibition at 10 μM)
same,A8: inhibition of radioligand binding,"Human neurokinin (NK1); [125I]-Substance P, human NK1 membranes",+ (“+” indicates greater than 50% inhibition at 10 μM)
same,A6: inhibition of radioligand binding,"[1]; [125I]-S36057, human MCH1 membranes, 10 µM",− (“−” indicates less than 50% inhibition at 10 μM)
same,A9: inhibition of radioligand binding,"[2]; [125I]-PYY, human NPY-Y1 membranes",− (“−” indicates less than 50% inhibition at 10 μM)
same,A11: inhibition of radioligand binding,"Mouse urotensin (mUR2); [125I]-Urotensin II, mouse mUR2 membranes",− (“−” indicates less than 50% inhibition at 10 μM)
same,A2: inhibition of radioligand binding,"Human κ-Opioid (KOP); [3H]-Diprenorphine, human KOP membranes",− (“−” indicates less than 50% inhibition at 10 μM)
same,A4: inhibition of radioligand binding,"Human Melanocortin (MC4); [125I]-NDP-αMSH, human MC4 membranes, 10 µM",+ (“+” indicates greater than 50% inhibition at 10 μM)
same,A3: inhibition of radioligand binding,"Human Melanocortin (MC3); [125I]-NDP-αMSH, human MC3 membranes, 10 µM",+ (“+” indicates greater than 50% inhibition at 10 μM)
same,A10: inhibition of radioligand binding,"Human opioid (ORL1); [125I]-Nociceptin, human ORL1 membranes, 10 µM",− (“−” indicates less than 50% inhibition at 10 μM)
same,A5: inhibition of radioligand binding,"Human melanocortin (MC5); [125I]-NDP-αMSH, human MC5 membranes",+ (“+” indicates greater than 50% inhibition at 10 μM)
same,A7: inhibition of radioligand binding,"Human μ-opioid (MOP); [3H]-Naloxone, human MOP membranes",− (“−” indicates less than 50% inhibition at 10 μM)
COC[C@H]1OC(OCCc2ccccc2)[C@H](NC(=O)CCCNC(=N)N)[C@@H](OCc2ccc(-c3ccccc3)cc2)[C@@H]1O (stereo partly shown) [compound 43],A1 radioligand binding inhibition,Human δ-opioid (DOP),− (“−” indicates less than 50% inhibition at 10 μM)
same,A8 radioligand binding inhibition,Human neurokinin (NK1),+ (“+” indicates greater than 50% inhibition at 10 μM)
same,A6 radioligand binding inhibition,[1],+ (“+” indicates greater than 50% inhibition at 10 μM)
same,A9 radioligand binding inhibition,[2]; human NPY-Y1 membranes,− (“−” indicates less than 50% inhibition at 10 μM)
same,A11 radioligand binding inhibition,Mouse urotensin (mUR2),− (“−” indicates less than 50% inhibition at 10 μM)
same,A2 radioligand binding inhibition,Human κ-Opioid (KOP),+ (“+” indicates greater than 50% inhibition at 10 μM)
same,A4 radioligand binding inhibition,Human Melanocortin (MC4),+ (“+” indicates greater than 50% inhibition at 10 μM)
same,A3 radioligand binding inhibition,Human Melanocortin (MC3),+ (“+” indicates greater than 50% inhibition at 10 μM)
same,A10 radioligand binding inhibition,Human opioid (ORL1); human ORL1 membranes,− (“−” indicates less than 50% inhibition at 10 μM)
same,A5 radioligand binding inhibition,Human melanocortin (MC5),+ (“+” indicates greater than 50% inhibition at 10 μM)
same,A7 radioligand binding inhibition,Human μ-opioid (MOP),+ (“+” indicates greater than 50% inhibition at 10 μM)
COCC1OC(OCCc2ccccc2)C(NC(=O)CNC(=N)N)C(OCc2ccc(-c3ccccc3)cc2)C1O (stereo not shown) [compound 548],"A1: inhibition of radioligand binding, human δ-opioid (DOP)",Human δ-opioid (DOP); [3H]-Bremazocine,− (“−” indicates less than 50% inhibition at 10 μM)
same,"A8: inhibition of radioligand binding, human neurokinin (NK1)","Human neurokinin (NK1); [125I]-Substance P, 10 µM",+ (“+” indicates greater than 50% inhibition at 10 μM)
same,"A6: inhibition of radioligand binding, human melanin-concentrating hormone (MCH1)",[1]; [125I]-S36057,− (“−” indicates less than 50% inhibition at 10 μM)
same,"A9: inhibition of radioligand binding, human neuropeptide Y (NPY-Y1)",[2]; [125I]-PYY,− (“−” indicates less than 50% inhibition at 10 μM)
same,"A11: inhibition of radioligand binding, mouse urotensin (mUR2)",Mouse urotensin (mUR2); [125I]-Urotensin II,− (“−” indicates less than 50% inhibition at 10 μM)
same,"A2: inhibition of radioligand binding, human κ-opioid (KOP)",Human κ-Opioid (KOP); [3H]-Diprenorphine,− (“−” indicates less than 50% inhibition at 10 μM)
same,"A4: inhibition of radioligand binding, human melanocortin (MC4)",Human Melanocortin (MC4); [125I]-NDP-αMSH,− (“−” indicates less than 50% inhibition at 10 μM)
same,"A3: inhibition of radioligand binding, human melanocortin (MC3)",Human Melanocortin (MC3); [125I]-NDP-αMSH,− (“−” indicates less than 50% inhibition at 10 μM)
same,"A10: inhibition of radioligand binding, human opioid (ORL1)",Human opioid (ORL1); [125I]-Nociceptin,− (“−” indicates less than 50% inhibition at 10 μM)
same,"A5: inhibition of radioligand binding, human melanocortin (MC5)",Human melanocortin (MC5); [125I]-NDP-αMSH,+ (“+” indicates greater than 50% inhibition at 10 μM)
same,"A7: inhibition of radioligand binding, human μ-opioid (MOP)",Human μ-opioid (MOP); [3H]-Naloxone,− (“−” indicates less than 50% inhibition at 10 μM)
COC[C@H]1OC(OCCc2ccccc2)[C@H](NC(=O)CCCNC(=N)N)[C@@H](OCc2ccc(Cl)cc2)[C@@H]1O (stereo partly shown) [compound 50],A1 radioligand binding inhibition,Human δ-opioid (DOP),− (“−” indicates less than 50% inhibition at 10 μM)
same,A8 radioligand binding inhibition,Human neurokinin (NK1),+ (“+” indicates greater than 50% inhibition at 10 μM)
same,A6 radioligand binding inhibition,[1],+ (“+” indicates greater than 50% inhibition at 10 μM)
same,A9 radioligand binding inhibition,[2]; human NPY-Y1 membranes,− (“−” indicates less than 50% inhibition at 10 μM)
same,A11 radioligand binding inhibition,Mouse urotensin (mUR2),− (“−” indicates less than 50% inhibition at 10 μM)
same,A2 radioligand binding inhibition,Human κ-Opioid (KOP),− (“−” indicates less than 50% inhibition at 10 μM)
same,A4 radioligand binding inhibition,Human Melanocortin (MC4),− (“−” indicates less than 50% inhibition at 10 μM)
same,A3 radioligand binding inhibition,Human Melanocortin (MC3),− (“−” indicates less than 50% inhibition at 10 μM)
same,A10 radioligand binding inhibition,Human opioid (ORL1); human ORL1 membranes,− (“−” indicates less than 50% inhibition at 10 μM)
same,A5 radioligand binding inhibition,Human melanocortin (MC5),− (“−” indicates less than 50% inhibition at 10 μM)
same,A7 radioligand binding inhibition,Human μ-opioid (MOP),− (“−” indicates less than 50% inhibition at 10 μM)
CO[C@H]1[C@H](O)[C@@H](COCc2ccccc2)OC(OCc2ccc(-c3ccccc3)cc2)[C@@H]1NC(=O)CCCN (stereo partly shown) [compound 60],A1 radioligand binding inhibition,Human δ-opioid (DOP),− (“−” indicates less than 50% inhibition at 10 μM)
same,A8 radioligand binding inhibition,Human neurokinin (NK1),− (“−” indicates less than 50% inhibition at 10 μM)
same,A6 radioligand binding inhibition,[1],− (“−” indicates less than 50% inhibition at 10 μM)
same,A9 radioligand binding inhibition,[2]; human NPY-Y1 membranes,− (“−” indicates less than 50% inhibition at 10 μM)
same,A11 radioligand binding inhibition,Mouse urotensin (mUR2),− (“−” indicates less than 50% inhibition at 10 μM)
same,A2 radioligand binding inhibition,Human κ-Opioid (KOP),− (“−” indicates less than 50% inhibition at 10 μM)
same,A4 radioligand binding inhibition,Human Melanocortin (MC4),− (“−” indicates less than 50% inhibition at 10 μM)
same,A3 radioligand binding inhibition,Human Melanocortin (MC3),− (“−” indicates less than 50% inhibition at 10 μM)
same,A10 radioligand binding inhibition,Human opioid (ORL1); human ORL1 membranes,− (“−” indicates less than 50% inhibition at 10 μM)
same,A5 radioligand binding inhibition,Human melanocortin (MC5),+ (“+” indicates greater than 50% inhibition at 10 μM)
same,A7 radioligand binding inhibition,Human μ-opioid (MOP),− (“−” indicates less than 50% inhibition at 10 μM)

# Reference: patent US20080009418A1, “Selective Inhibitors” (Alchemia LTD., priority 2004, published 2008)
